Values of other authors, collected in patent publication US6436414B1, “Active ingredient combinations or adducts of biotin and/or biotin derivatives and cyclodextrins and use of such active ingredient combinations in cosmetic preparations” (Beiersdorf AG, priority 1999, dated 2002).

Details: according to the literature

## O=C(O)CCCC[C@@H]1SC[C@@H]2NC(=O)N[C@@H]21 [biotin, D-cis-hexahydro-2-oxothieno[3,4-d]imidazole-4-valeric acid]
  solubility limit of biotin in aqueous solution: about 0.04%
